Data taken from patent US8697691B2, “Alkyl 3-((2-amidoethyl)amino)-8-azabicyclo[3.2.1]octane-8-carboxylate analogs as selective M1 agonists and methods of making and using same” (Vanderbilt University, priority 2009, dated 2014).

Molecular target: T1, hM5 receptor (Homo sapiens, UniProt P08912)
T1 construct: expressed in transfected cells; host or cells: CHO cells (Levey et al., 1991)
T1 sequence (P08912 1-532): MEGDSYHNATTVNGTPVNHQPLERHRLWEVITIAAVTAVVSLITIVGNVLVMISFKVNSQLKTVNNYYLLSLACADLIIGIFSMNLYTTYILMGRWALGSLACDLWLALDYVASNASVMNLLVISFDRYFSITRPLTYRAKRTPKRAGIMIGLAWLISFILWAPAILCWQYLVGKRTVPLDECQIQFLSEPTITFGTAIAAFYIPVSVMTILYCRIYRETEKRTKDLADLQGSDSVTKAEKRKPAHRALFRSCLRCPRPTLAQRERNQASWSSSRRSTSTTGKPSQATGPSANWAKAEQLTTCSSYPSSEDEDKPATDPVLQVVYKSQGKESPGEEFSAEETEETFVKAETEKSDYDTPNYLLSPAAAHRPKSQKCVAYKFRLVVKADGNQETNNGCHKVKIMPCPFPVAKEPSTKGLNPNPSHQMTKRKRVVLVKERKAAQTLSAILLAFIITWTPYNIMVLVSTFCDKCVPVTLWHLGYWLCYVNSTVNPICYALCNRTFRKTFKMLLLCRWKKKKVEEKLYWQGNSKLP
Assay: Calcium mobilization assay, CHO cells stably expressing hM5
Format: cell-based
Source text: Chinese hamster ovary (CHO-K1) cells stably expressing rat (r)M1 were purchased from the American Type Culture Collection and cultured according to their indicated protocol. CHO cells stably expressing human (h)M2, hM3, and hM5 were described previously (Levey et al., 1991); hM1 and hM4 cDNAs were purchased from Missouri S&T cDNA Resource; rM4 cDNA was provided by T. I. Bonner (National Institutes of Health, Bethesda, Md.). hM1, hM4, and rM4 cDNAs were used to stably transfect CHO-K1 cells purchased from the American Type Culture Collection using Lipofectamine2000. […]
For low throughput measurement of agonist-evoked increases in intracellular calcium, CHO-K1 cells stably expressing muscarinic receptors were plated in 100 μL of growth medium at 5×10^4 (rM1, hM3, and hM5) or 6×10^4 cells per well (rM1 Y381A, hM2, and rM4) in Costar 96-well black-walled, tissue culture (TC)-treated, clear-bottom plates (Fisher). […] For calcium fluorescence measurements, CRCs of compounds (50 μl, 2×) were added 19 s after the beginning of data collection via a Flexstation II (Molecular Devices, Sunnyvale, Calif.). Fluorescence imaging continued for a total of 130 s acquisition time using an excitation wavelength of 488 nm, an emission wavelength of 525 nm, and a cutoff wavelength of 515 nm. […]

Structure (SMILES): CCOC(=O)N1[C@@H]2CC[C@H]1C[C@H](NCCNC(=O)c1ccccc1)C2 [Example 26, ethyl 3-((3-exo)-(2-benzamidoethyl)amino)-8-azabicyclo[3.2.1]octane-8-carboxylate]
- EC50: > 10 µM

Structure (SMILES): CCOC(=O)N1[C@@H]2CC[C@H]1C[C@@H](NCCNC(=O)c1ccccc1)C2 [Example 27, ethyl 3-((3-endo)-(2-benzamidoethyl)amino)-8-azabicyclo[3.2.1]octane-8-carboxylate]
- EC50: ~10 µM
